MTD data for one compound are collected here from patent US20070088023A1, “Method of administration for 5-(2-chlorophenyl)-1,2-dihydro-7-fluoro-8-methoxy-3-methyl-oyrazolo[1,4]benzodiazepine” (priority 2005, published 2007).

The data set is described as follows: pre-clinical good laboratory practices toxicology, maximum tolerated dose. On the set-up: species or system rats. To be noted: rat, in vivo. Here is the method:
The starting dose is based on pre-clinical good laboratory practices toxicological results, according to the accepted standards. […] Thus, the maximum tolerated dose equivalent for this trial will be 1/10th of the HED or 1.8 rounded down to 1.5 mg/m^2/day with dose escalation in 1.5 mg/m^2 increments to 30 mg/m^2 or until dose limiting toxicity(s)(DLT) occur.

Read-outs that look alike come from different tables or passages of the source.

Consider `COc1cc2c(cc1F)C(c1ccccc1Cl)=Nc1c(n[nH]c1C)N2` [compound of Formula I, 5-(2-chlorophenyl)-1,2-dihydro-7-fluoro-8-methoxy-3-methyl-pyrazolo[3,4-b][1,4]benzodiazepine], for which the MTD (rat MTD 3 mg/kg/day times 6, read-out: HED (human equivalent dose) of the rat maximum tolerated dose) stood at 18 mg/kg/day and the MTD (rats, pre-clinical GLP toxicology, read-out: maximum tolerated dose in rats) turned out to be 3 mg/kg/day.
